Assay results taken from patent US20040039041A1, “Prevention of development of dyskinesias” (priority 2003, published 2004).

Key:
[1] = tested on: C57BL/6J strain male mice; experiment: Locomotor activity during chronic treatment (days 1-8), D-amphetamine sensitization schedule with atipamezole pre-treatment; format: in vivo
Method: The effects of atipamezole on the locomotor hyperactivity induced by repeated administration of D-amphetamine were studied in male mice.
(§1) Experiments were performed with C57BL/6J strain male mice from Jackson Laboratories. Mice were transferred to laboratory at least 2 weeks prior to use. The mice were from 8 to 20 weeks of age at the beginning of an experiment. Groups of 10 mice were housed in standard polypropylene cages (38×22×15 cm) with free access to standard certified pelleted food (RM1 Maintenance Expanded SQC; Special Diet Services, Essex, UK) and water. Ambient temperature was 22±1 C°, and a 12:12 h light/dark cycle was maintained with lights on at 6 A.M. All experiments were carried out between 7 A.M. and 5 P.M. The animal care was performed in accordance with International Council for Laboratory Animal Science (ICLAS) guidelines.
(§2) D-Amphetamine sulphate (Sigma, St. Louis, Mo., U.S.A.) and atipamezole HCl (Orion Corporation, Orion Pharma, Turku, Finland) were dissolved in saline (0.9% NaCl) and administered subcutaneously (s.c.) in a 5 ml/kg volume.
(§3) The locomotor activity of the mice was measured in transparent standard polypropylene animal cages (38×22×15 cm) with transparent cover and aspen bedding on the floor. Test cages were placed middle of the photobeam frame system (Photobeam Activity System PAS, Cage Rack, San Diego Instruments, San Diego, Calif.). Computer control unit registered the interruptions of photobeams from 16 individual cages. Three different types of movements were monitored: 1) ambulations (large horizontal movements), 2) fine movements (smaller horizontal movements) and 3) rearings (vertical movements). Locomotor activity was measured at 5-min intervals for 2 h immediately after D-amphetamine or saline administrations.
D-amphetamine was administered subcutaneously (s.c.) at the dose of 2 mg/kg. Atipamezole was administered s.c. at the dose of 1 mg/kg 20 min before locomotor activity measurement.
In the chronic-treatment group mice were administrated during eight days to elicit provoked locomotor hyperactivity to D-amphetamine and the effect of the atipamezole to the locomotor activity. Mice groups in the chronic treatment schedule were saline, saline-amphetamine, amphetamine, atipamezole and atipamezole-amphetamine. A day before experiment, mice were habituated to the test environment. […] At days seven and eight, the produced locomotor hyperactivity and effect of a single exposure of D-amphetamine (saline-amphetamine-group) were analysed. […]
All data are presented as mean±SEM. […] Results were analysed separately, because data were collected in separate experiments with different study design. When significance (P<0.05) between treatment groups were found comparisons at each time point (date or min) were analyzed by using LSD post-hoc test.

[2] = tested on: C57BL/6J strain male mice; experiment: Locomotor activity after different drug treatments at day 9 in the chronic treatment groups; format: in vivo
Method: as §1, §2, §3
At day nine, the effect of different atipamezole and amphetamine administrations to the locomotor activity on the chronic treatment groups were analysed. Used treatments were saline, 1 mg/kg atipamezole, 2 mg/kg D-amphetamine, 0.3 mg/kg atipamezole-2 mg/kg D-amphetamine and 1 mg/kg atipamezole-2 mg/kg D-amphetamine. Chronic treatment groups were saline-, atipamezole-, amphetamine- and atipamezole-amphetamine groups. Chronic groups were treated following schedule in Table 2.
All data are presented as mean±SEM. Statistical analysis were performed using SPSS 9.0 for Windows (SPSS, Chicago, Ill.). Separate repeated measures analyses of variance (ANOVA) were performed on each variable for each experiment grouped on time and treatment group. Results were analysed separately, because data were collected in separate experiments with different study design. When significance (P<0.05) between treatment groups were found comparisons at each time point (date or min) were analyzed by using LSD post-hoc test.

Row | SMILES | ambulatory activity compared to saline group ([1]; D-amphetamine 2 mg/kg s.c., six repeated administrations (days 1-4, 7, 8), 2-h counts, group amphetamine vs saline and saline-amphetamine at Day 8 P<0.001) | ambulatory sensitization during repeated administration ([2]; Day 9, chronic amphetamine group, D-amphetamine 2 mg/kg, P<0.001) | locomotor activity after D-amphetamine ([2]; Day 9, chronic saline group, D-amphetamine 2 mg/kg s.c., P<0.001 vs saline, not same level as amphetamine group (P<0.001)) | D-amphetamine-induced locomotion, atipamezole-amphetamine vs amphetamine group ([1]; atipamezole 1 mg/kg s.c. 20 min before D-amphetamine 2 mg/kg s.c. over the course of exposure, Day 2 P<0.05, Days 3-8 P<0.001) | locomotor activity, atipamezole pre-treatment before saline challenge vs saline group ([1]; atipamezole 1 mg/kg s.c. daily for six days, 20 min before saline, Day 8, P=0.43) | development and expression of sensitization (motor overactivity) ([1]; given chronically in combination with D-amphetamine, in mice (summary statement)) | D-amphetamine-induced locomotor hyperactivity in sensitized mice ([2]; Day 9, chronic amphetamine group, atipamezole 0.3 mg/kg 20 min before D-amphetamine 2 mg/kg, P=0.005) | D-amphetamine-induced locomotor hyperactivity in sensitized mice ([2]; Day 9, chronic amphetamine group, atipamezole 1 mg/kg 20 min before D-amphetamine 2 mg/kg, P<0.001) | locomotor activity before saline and D-amphetamine challenge after chronic atipamezole ([2]; Day 9, chronic atipamezole group (1 mg/kg days 1-8)) | D-amphetamine induced locomotion, group atipamezole-amphetamine vs amphetamine-amphetamine ([2]; Day 9, chronic atipamezole-amphetamine group given atipamezole 1 mg/kg 20 min before D-amphetamine 2 mg/kg, P<0.001) | locomotor activity with D-amphetamine only at Day 9 after chronic atipamezole-amphetamine, compared to amphetamine-amphetamine group (development of sensitization) ([2]; Day 9, chronic atipamezole-amphetamine group given only D-amphetamine 2 mg/kg, P-0.026) | locomotor activity, atipamezole pre-treatment before D-amphetamine challenge compared D-amphetamine alone ([2]; Day 9, chronic saline group, atipamezole 0.3 mg/kg 20 min before D-amphetamine 2 mg/kg, P=0.016) | locomotor activity, atipamezole pre-treatment before D-amphetamine challenge compared D-amphetamine alone ([2]; Day 9, chronic saline group, atipamezole 1 mg/kg 20 min before D-amphetamine 2 mg/kg, P=0.364) | total ambulatory activity counts, atipamezole pre-treatment alone ([2]; Day 9, chronic saline group, atipamezole 1 mg/kg 20 min before saline, P=0.81)
1 | C[C@H](N)Cc1ccccc1 [D-amphetamine] | progressive enhance in ambulatory activity | developed strong ambulatory sensitization | significantly enhanced locomotor activity |  |  |  |  |  |  |  |  |  |  | 
2 | CCC1(c2c[nH]cn2)Cc2ccccc2C1 [Atipamezole, 4-(2-ethyl-2,3-dihydro-1H-inden-2-yl)-1H-imidazole] |  |  |  | decreased significantly D-amphetamine-induced locomotion | not statistical significant difference | reduced the development and expression of sensitization | clearly attenuated the D-amphetamine-induced locomotor hyperactivity | clearly attenuated the D-amphetamine-induced locomotor hyperactivity | elevation was not statistically significant | decreased significantly D-amphetamine induced locomotion | true reduction in the development of sensitization | amplified locomotor activity | had no effect | did not alter total ambulatory activity counts
